Calls of active or inactive are those of the source.
Experiments:
Cryptococcus neoformans = assay: PubChem AID 686997; type: functional, organism-based
BJ [1] = assay: cells; type: functional, cell-based; conditions: Homo sapiens
Streptococcus = assay: Group A Streptococcus viability loss, dose response, counter-screen for streptokinase expression inhibitor project, luminescence, BacTiterGlo (AID 1915); type: functional, organism-based;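 further: potency for reduction of bacterial viability or growth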
BJ [2] = assay: cytotoxicity toward Ras-transformed BJeLR fibroblasts, dose response, cell-based, alamar blue fluorescence, cherrypicked samples (AID 2631); type: functional; conditions: Homo sapiens;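 further: confirmatory dose-response assay in RAS-dependent BJ fibroblasts engineered with TERT, LT and ST, with cytotoxicity read by fluorescence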
[3] = microbe, parasite or virus in culture; type: functional; conditions: Mycobacterium tuberculosis
BJ [4] = assay: cytotoxicity toward BJ-TERT fibroblasts, dose response, cell-based, RAS-independent, luminescence (AID 1933); type: functional; conditions: Homo sapiens
BJ [5] = assay: cytotoxicity toward BJ-TERT-LT-ST fibroblasts, dose response, cell-based, RAS-independent, luminescence (AID 1935); type: functional; conditions: Homo sapiens;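 further: BJ fibroblasts immortalized with TERT plus LT and ST oncogenes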
[6] = cytotoxicity toward DRD oncogenic fibroblasts, dose response, cell-based, non-viral oncogenic, luminescence (AID 1934); type: functional; conditions: Homo sapiens
[7] = tested on: Streptococcus sp. 'group A'; assay: growth inhibition of control SK(-) GAS strain, dose response, counter-screen for streptokinase expression inhibitor project, luminescence, kanamycin, BacTiterGlo, confirmation (AID 1900); type: functional, organism-based
HEK293 [8] = assay: NOD1 signaling inhibitors, primary screen, cell-based, luminescence, uHTS (AID 1578); type: functional; conditions: Homo sapiens
[9] = target: T1, Rac GTPase-activating protein 1 (Homo sapiens, UniProt Q9H0H5); assay: MgcRacGAP GTPase-activating activity inhibitors, confirmation, biochemical, ADP Hunter fluorescence, primary and confirmatory (AID 624330); type: functional
T1 sequence (Q9H0H5 whole entry): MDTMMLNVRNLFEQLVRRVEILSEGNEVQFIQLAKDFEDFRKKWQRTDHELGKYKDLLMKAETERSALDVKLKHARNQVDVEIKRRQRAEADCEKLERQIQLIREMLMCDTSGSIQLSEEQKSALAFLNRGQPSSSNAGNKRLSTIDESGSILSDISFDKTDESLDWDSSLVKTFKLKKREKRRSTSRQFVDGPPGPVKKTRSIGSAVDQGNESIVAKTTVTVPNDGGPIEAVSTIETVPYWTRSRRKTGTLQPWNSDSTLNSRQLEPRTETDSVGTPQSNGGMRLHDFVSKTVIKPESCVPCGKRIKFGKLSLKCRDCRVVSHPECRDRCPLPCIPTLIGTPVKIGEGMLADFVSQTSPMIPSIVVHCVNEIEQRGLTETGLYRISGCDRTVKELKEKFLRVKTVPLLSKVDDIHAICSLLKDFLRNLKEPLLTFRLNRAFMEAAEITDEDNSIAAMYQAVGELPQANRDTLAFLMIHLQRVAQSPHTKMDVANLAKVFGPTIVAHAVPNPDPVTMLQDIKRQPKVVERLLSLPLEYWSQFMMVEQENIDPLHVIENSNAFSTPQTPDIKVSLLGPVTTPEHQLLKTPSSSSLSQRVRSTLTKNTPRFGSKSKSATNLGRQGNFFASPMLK

[10] = HeLa cell cytotoxicity, dose response, cytotoxicity control for MgcRacGAP inhibitor project (AID 624300); type: functional
[11] = CRF-BP/CRF-R2 complex antagonists, dose response, cell-based, uHTS hits, 384-well (AID 651639); type: functional, Homo sapiens; conditions: read-out: IC50_Mean
HEK293 [12] = assay: cells; type: functional, cell-based; conditions: Homo sapiens
HEK293 [13] = assay: NOD2 signaling inhibitors in MDP-stimulated cells, cell-based, uHTS, luminescence (AID 2001); type: functional; conditions: Homo sapiens
[14] = target: T2, Corticotropin-releasing factor receptor 2/Corticotropin-releasing factor-binding protein (Homo sapiens, UniProt P24387+Q13324); assay: activators of CRF receptor 2 with binding protein – uHTS hits, confirmation (AID 602473); type: functional; conditions: read-out: EC50_Mean
T2 sequence (Q13324 whole entry): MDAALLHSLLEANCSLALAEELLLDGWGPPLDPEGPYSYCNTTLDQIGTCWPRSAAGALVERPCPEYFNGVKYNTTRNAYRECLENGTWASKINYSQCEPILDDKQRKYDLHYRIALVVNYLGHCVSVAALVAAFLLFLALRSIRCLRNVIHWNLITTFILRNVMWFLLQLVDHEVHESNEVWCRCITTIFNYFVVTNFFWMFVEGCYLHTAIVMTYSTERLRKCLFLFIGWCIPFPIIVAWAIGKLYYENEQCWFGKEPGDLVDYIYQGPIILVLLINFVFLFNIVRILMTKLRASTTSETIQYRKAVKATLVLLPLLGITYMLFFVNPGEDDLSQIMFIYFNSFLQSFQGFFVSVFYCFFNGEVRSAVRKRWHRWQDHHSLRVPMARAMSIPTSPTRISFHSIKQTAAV
T2 sequence (P24387 whole entry): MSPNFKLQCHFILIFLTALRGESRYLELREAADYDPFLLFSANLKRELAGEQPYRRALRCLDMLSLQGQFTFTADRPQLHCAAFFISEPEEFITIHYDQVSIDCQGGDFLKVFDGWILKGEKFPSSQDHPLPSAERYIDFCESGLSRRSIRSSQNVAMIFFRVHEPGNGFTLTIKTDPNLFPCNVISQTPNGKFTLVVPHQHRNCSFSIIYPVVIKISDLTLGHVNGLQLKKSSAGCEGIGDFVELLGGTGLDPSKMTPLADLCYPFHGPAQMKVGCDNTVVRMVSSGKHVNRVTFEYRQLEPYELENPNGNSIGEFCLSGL

HEK293 [15] = assay: cells; type: functional, cell-based; conditions: Homo sapiens; remark: listed apart in the source
[16] = target: T2, Corticotropin-releasing factor receptor 2/Corticotropin-releasing factor-binding protein; assay: Dose Response confirmation of uHTS hits for small molecule antagonists of the CRF-binding protein and CRF-R2 receptor complex.; type: functional; conditions: read-out: IC50_Mean
[17] = target: Nucleotide-binding oligomerization domain-containing protein 2 (Homo sapiens, UniProt Q9HC29); assay: NOD2 signaling inhibitors, cell-based, luminescence, uHTS, HEK293 (AID 1566); type: functional
HEK293 [18] = assay: cells; type: functional, cell-based; conditions: Homo sapiens; remark: listed apart in the source
[19] = target: T3, High affinity choline transporter 1 (Homo sapiens, UniProt Q9GZV3); assay: CHT inhibitors, dose response, cell-based, 5-point CRC, membrane potential dye (AID 504840); type: functional
T3 sequence (Q9GZV3 whole entry): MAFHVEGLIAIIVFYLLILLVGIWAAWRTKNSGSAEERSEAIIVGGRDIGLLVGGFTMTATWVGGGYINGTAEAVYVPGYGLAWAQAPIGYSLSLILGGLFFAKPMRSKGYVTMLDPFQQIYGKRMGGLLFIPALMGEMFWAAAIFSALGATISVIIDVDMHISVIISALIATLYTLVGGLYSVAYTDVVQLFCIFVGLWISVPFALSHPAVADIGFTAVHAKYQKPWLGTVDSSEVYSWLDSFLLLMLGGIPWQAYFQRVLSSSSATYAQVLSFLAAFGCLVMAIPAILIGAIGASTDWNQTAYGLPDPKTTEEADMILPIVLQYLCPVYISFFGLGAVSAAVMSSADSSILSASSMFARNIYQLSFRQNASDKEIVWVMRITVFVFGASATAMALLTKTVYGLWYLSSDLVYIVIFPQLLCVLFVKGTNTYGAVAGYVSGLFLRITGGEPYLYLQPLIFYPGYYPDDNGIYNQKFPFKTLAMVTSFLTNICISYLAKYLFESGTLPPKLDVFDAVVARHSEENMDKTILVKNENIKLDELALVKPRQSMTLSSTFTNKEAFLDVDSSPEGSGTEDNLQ

[20] = target: T3, High affinity choline transporter 1; assay: CHT inhibitors, dose response, cell-based, 10-point CRC, membrane potential dye (AID 588401); type: functional;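 further: membrane potential dye fluorescence of choline-evoked depolarization via CHT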
HEK293 [21] = assay: cells; type: functional, cell-based; conditions: Homo sapiens; remark: listed apart in the source
[22] = target: T4, Nuclear receptor subfamily 0 group B member 1 (Homo sapiens, UniProt P51843); assay: Luminescence-based cell-based high throughput dose response assay for inhibitors of the orphan nuclear receptor subfamily 0, group B, member 1 (DAX1; NR0B1). [Related pubchem assays (depositor defined):AID504766, AID504790]; type: functional
T4 sequence (P51843 whole entry): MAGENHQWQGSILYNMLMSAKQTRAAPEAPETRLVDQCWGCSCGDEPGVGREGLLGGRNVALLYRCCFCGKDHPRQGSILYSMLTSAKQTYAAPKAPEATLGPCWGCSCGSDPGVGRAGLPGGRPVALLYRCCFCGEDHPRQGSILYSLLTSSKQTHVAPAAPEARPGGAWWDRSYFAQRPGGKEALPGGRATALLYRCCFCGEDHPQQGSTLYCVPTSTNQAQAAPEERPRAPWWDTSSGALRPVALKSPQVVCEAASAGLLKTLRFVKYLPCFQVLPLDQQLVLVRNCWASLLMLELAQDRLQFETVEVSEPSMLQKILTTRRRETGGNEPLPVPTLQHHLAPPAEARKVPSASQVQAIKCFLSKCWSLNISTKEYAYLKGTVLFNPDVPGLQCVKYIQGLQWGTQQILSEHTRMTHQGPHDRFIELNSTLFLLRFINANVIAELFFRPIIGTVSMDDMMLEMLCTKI

CHO = assay: cytotoxicity in TLR9-MyD88 CHO cells, dose response, cytotoxicity control for TLR9-MyD88 binding inhibitor project, cell-based, luminescence (AID 588339); type: functional, hamster; conditions: Cricetulus griseus;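 further: CHO cells stably coexpressing TLR9 and MyD88 fusions from primary screen; compound exposure lasted 48 hours before viability readout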
Escherichia coli = assay: microbe, parasite or virus in culture

Chain of Nucleotide-binding oligomerization domain-containing protein 2 (Q9HC29 whole entry, the tested form may be a part): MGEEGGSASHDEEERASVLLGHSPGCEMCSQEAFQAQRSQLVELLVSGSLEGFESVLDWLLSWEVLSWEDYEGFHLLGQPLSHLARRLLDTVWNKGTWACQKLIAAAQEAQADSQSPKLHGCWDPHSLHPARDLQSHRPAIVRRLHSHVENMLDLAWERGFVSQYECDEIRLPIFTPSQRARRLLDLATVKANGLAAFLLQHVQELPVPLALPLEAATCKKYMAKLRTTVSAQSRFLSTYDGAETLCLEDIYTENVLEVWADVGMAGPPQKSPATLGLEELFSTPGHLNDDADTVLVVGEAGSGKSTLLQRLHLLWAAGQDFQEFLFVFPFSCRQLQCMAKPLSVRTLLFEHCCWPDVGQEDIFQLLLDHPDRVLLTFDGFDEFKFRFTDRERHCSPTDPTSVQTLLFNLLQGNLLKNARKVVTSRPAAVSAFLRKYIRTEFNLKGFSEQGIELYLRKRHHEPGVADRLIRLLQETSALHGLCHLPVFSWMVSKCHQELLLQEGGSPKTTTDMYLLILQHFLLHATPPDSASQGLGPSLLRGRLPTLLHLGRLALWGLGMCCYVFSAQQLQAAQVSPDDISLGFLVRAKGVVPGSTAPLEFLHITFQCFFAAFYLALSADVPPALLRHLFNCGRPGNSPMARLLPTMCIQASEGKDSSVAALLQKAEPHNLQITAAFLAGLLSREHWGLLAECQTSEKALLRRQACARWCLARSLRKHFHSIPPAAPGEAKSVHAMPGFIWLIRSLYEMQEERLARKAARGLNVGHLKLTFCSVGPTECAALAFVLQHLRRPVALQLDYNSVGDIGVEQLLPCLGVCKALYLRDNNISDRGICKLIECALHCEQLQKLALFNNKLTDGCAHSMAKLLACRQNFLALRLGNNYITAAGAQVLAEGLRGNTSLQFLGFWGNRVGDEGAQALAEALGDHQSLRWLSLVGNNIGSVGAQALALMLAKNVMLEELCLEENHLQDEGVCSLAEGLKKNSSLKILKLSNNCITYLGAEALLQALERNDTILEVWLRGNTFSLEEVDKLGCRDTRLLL

## COC(=O)C1=C(C)N(Cc2ccc(F)cc2)C(=S)NC1c1cccc(Cl)c1 (configuration not stated)
Cryptococcus neoformans
  AC50: 49.5 µM (active)
Cryptococcus neoformans; Cryptococcus neoformans
  AC50: > 70 µM (inactive)

## Cc1nc(N)nc(N)c1CCCc1ccc(Cl)c(Cl)c1
BJ [1]
  EC50: 1.36 µM (active)
Streptococcus
  EC50: 4.01 µM (active)
BJ [2]
  EC50: > 133 µM (inactive)
[3]
  CC50: 4.07 µM (active)
BJ [4]
  EC50: 17 µM (active)
BJ [5]
  EC50: > 150 µM (not active)
[6]
  EC50: 3.05 µM (active)
[7]
  EC50: 1.03 µM (active)

## Cc1[nH]n(-c2cccc(Cl)c2)c(=O)c1-c1ccc(Cl)cc1
HEK293 [8]
  EC50: 2.43 µM (active)
[9]
  IC50: 80 µM (active)
[10]
  CC50: 100 µM (active)
[11]
  IC50: > 20 µM (inactive)
HEK293 [12]
  IC50: > 20 µM (inactive)
HEK293 [13]
  IC50: 9.97 µM (inactive)
[14]
  EC50: > 53 µM (inactive)
HEK293 [15]
  IC50: 14.2 µM (active)
[16]
  IC50: 0.98 µM (active)
[17]
  EC50: 12.8 µM (active)
HEK293 [18]
  IC50: > 20 µM (inactive)

## O=C(/C=C\c1ccco1)Nc1cc([N+](=O)[O-])ccc1F
BJ [1]
  EC50: 2.06 µM (active)
BJ [2]
  EC50: 0.42 µM (active)
BJ [4]
  EC50: 1.44 µM (active)
BJ [5]
  EC50: 0.821 µM (active)
[6]
  EC50: 1.17 µM (active)

## COc1ccc(-c2cc(=O)c3cc(O)ccc3o2)cc1
[19]
  IC50: 4.38 µM (active)
[20]
  IC50: 3.64 µM (active)

## O=C(CCc1ccccc1)NC(=S)Nc1ccccc1Br
HEK293 [21]
  IC50: > 67.5 µM (inactive)
[22]
  IC50: > 67.5 µM (inactive)

## CCCCNC(=O)COC(=O)c1c2c(nc3ccccc13)/C(=C/c1cccs1)CC2
CHO
  IC50: > 49.7 µM (inactive)

## O=C(Nc1cc(S(=O)(=O)N2CCOCC2)ccc1N1CCCC1)c1ccc(Cl)cc1
Escherichia coli
  AC50: 25.2 µM (active)

From ChEMBL document CHEMBL1201862, “PubChem BioAssay data set” (2004)
